As a reminder, the IC50 is the concentration that inhibits the measured activity by half. The term IC90 denotes the concentration needed for an effect of 90%. In general, IC95 refers to the point of the concentration-response curve where the effect stands at 95%.

The subject of data set [1] is Plasmodium falciparum. In words: Antimalarial activity against ring stage of Plasmodium falciparum 3D7 infected in erythrocytes assessed as [3H]-hypoxanthine incorporation after 48 hrs by liquid scintillation counting analysis. It is filed as functional, organism-based.
Data set [2] concerns NFF. Description: Cytotoxicity against human NFF cells up to 100 uM after 3 days by SRB assay. It is filed as cell-based. The conditions noted are these: 72 h.

The structures appear in SMILES notation.

On to `COc1cc(C(=O)O)ccc1O[C@@H]1O[C@H](COC(=O)/C=C/c2ccccc2)[C@@H](O)[C@H](O)[C@H]1O`, for which the IC50 in data set [1] was more than 25 µM.

Turning to `O=C(/C=C/c1ccccc1)OC[C@H]1O[C@@H](OC[C@@H](O)[C@@H](O)[C@H](O)[C@H](O)CO)[C@H](O)[C@@H](O)[C@@H]1O`, the IC50 in data set [1] is more than 25 µM.

For `O=C(/C=C/c1ccc(O)c(O)c1)OC[C@H]1O[C@@H](OC[C@@H](O)[C@@H](O)[C@H](O)[C@H](O)CO)[C@H](O)[C@@H](O)[C@@H]1O`, in data set [1], the IC50 was more than 25 µM.

With `COc1cc(C(C)=O)ccc1O[C@@H]1O[C@H](COC(=O)/C=C/c2ccc(O)cc2)[C@@H](O)[C@H](O)[C@H]1O`, in data set [1], the IC50 was more than 25 µM.

On to `CC(=O)c1ccc(O[C@@H]2O[C@H](COC(=O)/C=C/c3ccc(O)cc3)[C@@H](O)[C@H](O)[C@H]2O)cc1`, for which, in data set [1], the IC50 is more than 25 µM.

Turning to `COc1cc(/C=C/C(=O)OC[C@H]2O[C@@H](Oc3ccc(C(C)=O)cc3OC)[C@H](O)[C@@H](O)[C@@H]2O)ccc1O`, the IC50 in data set [1] is more than 25 µM.

Consider `CC(=O)OC(C)(C)CCC(=O)[C@](C)(O)[C@H]1[C@H](O)C[C@@]2(C)[C@@H]3CC=C4[C@H](C[C@H](O[C@@H]5O[C@H](CO)[C@@H](O)[C@H](O)[C@H]5O)[C@H](O)C4(C)C)[C@]3(C)CC[C@]12C`, for which the IC50 in data set [1] is more than 25 µM.

In the case of `CC(=O)OC(C)(C)/C=C/C(=O)[C@](C)(O)[C@H]1[C@H](O)C[C@@]2(C)[C@@H]3CC=C4[C@H](C[C@H](O[C@@H]5O[C@H](CO)[C@@H](O)[C@H](O)[C@H]5O)[C@H](O)C4(C)C)[C@]3(C)CC[C@]12C`, in data set [1], the IC50 came to 8.3 µM, the IC90 was 17.3 µM and the IC95 worked out at 23.5 µM. Moreover, the Activity entry in data set [2] was “Non-toxic”.

As to `COc1cc(C(C)=O)ccc1O[C@@H]1O[C@H](COC(=O)/C=C/c2ccccc2)[C@@H](O)[C@H](O)[C@H]1O`, in data set [1], the IC50 is more than 25 µM.

On to `O=C(/C=C/c1ccccc1)OC[C@H]1O[C@@H](O[C@@H]2OC=C[C@H]3[C@H](O)[C@@H]4O[C@]4(CO)[C@@H]23)[C@H](O)[C@@H](O)[C@@H]1O` [PICROSIDE I], for which the concentration for half-maximal inhibition (IC50) in data set [1] was more than 25 µM.
